Laboratory results published in patent US9315490B2, “2,5-substituted pyrimidines” (Grünenthal GmbH, priority 2014, dated 2016).

Assays:
human PDE4B1 [1] = biological target: T1, human PDE4B1 (Homo sapiens, UniProt Q07343); test: TR-FRET assay using the LANCE Ultra cAMP kit to determine the activity of hPDE4B1; format: biochemical; settings: read-out: Inhibition in % (inhibition of PDE4B); for inhibition at 1 µM: test concentration 1 μM; for inhibition at 10 µM: test concentration 10 μM (marked in cell)
T1 construct: host or cells: Sf9 cells
Procedure, shortened: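 Sf9-expressed recombinant human PDE4B1 (0.96 U) hydrolyses 500 nM cAMP for 30 minutes at room temperature in 50 mM Tris-HCl, 50 mM MgCl2, 5 mM DTT, pH 8.5. The reaction is stopped with IBMX, and residual cAMP is measured by TR-FRET (665/620 ratio). IC50 comes from ten concentrations.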

human PDE4B1 [2] = biological target: T1, human PDE4B1; test: cAMP HTRF assay to determine the activity of hPDE4B1; format: biochemical; settings: inhibition of PDE4B at a test concentration of 1 μM
Procedure, shortened: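 […], using HTRF quantitation of residual cAMP after 1 mM IBMX stop and 60 min detection. Enzyme was Sf9-expressed human PDE4B1 incubated 30 min at room temperature with 40 nM final cAMP at pH 7.8.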

T1 sequence (Q07343 whole entry): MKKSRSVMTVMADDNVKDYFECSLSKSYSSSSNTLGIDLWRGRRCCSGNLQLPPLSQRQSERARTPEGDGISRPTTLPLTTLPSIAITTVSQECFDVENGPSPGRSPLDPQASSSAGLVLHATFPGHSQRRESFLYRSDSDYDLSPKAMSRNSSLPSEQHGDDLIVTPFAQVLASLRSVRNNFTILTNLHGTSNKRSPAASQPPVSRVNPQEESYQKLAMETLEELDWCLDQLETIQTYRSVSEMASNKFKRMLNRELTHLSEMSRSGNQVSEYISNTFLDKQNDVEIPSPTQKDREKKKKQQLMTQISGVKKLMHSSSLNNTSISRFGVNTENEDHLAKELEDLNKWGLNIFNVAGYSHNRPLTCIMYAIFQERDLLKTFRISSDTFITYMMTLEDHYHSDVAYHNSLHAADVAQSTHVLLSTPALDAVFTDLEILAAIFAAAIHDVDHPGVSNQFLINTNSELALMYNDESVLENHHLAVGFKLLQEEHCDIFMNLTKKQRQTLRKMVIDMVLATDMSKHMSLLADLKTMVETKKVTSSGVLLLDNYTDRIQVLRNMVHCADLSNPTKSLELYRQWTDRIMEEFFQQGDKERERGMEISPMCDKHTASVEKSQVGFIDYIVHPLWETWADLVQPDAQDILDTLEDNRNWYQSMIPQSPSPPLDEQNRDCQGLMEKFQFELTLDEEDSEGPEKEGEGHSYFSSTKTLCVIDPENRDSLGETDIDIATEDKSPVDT

inhibition at 1 µM (human PDE4B1 [1])	melting point	inhibition at 10 µM (human PDE4B1 [1])	inhibition at 1 µM (human PDE4B1 [2])	Compound
87%	122 to 126 °C			CNCCN(C)C(=O)c1ccc2c([S+](C)[O-])cn(-c3ncc(-c4ccccc4F)cn3)c2c1 (stereo not shown) [Example 346, 1-(5-(2-Fluorophenyl)pyrimidin-2-yl)-N-methyl-N-(2-(methylamino)ethyl)-3-(methylsulfinyl)-1H-indole-6-carboxamide]
82%	286 to 288 °C			C[S+]([O-])c1cn(-c2ncc(-c3nc(C(N)=O)cs3)cn2)c2cc(C(=O)N3CCOCC3)ccc12 (stereo not shown) [Example 204, 2-(2-(3-(Methylsulfinyl)-6-(morpholine-4-carbonyl)-1H-indol-1-yl)pyrimidin-5-yl)thiazole-4-carboxamide]
82%	286 to 289 °C			C[S+]([O-])c1cn(-c2ncc(-c3ncc(C(N)=O)s3)cn2)c2cc(C(=O)N3CCOCC3)ccc12 (stereo not shown) [Example 208, 2-(2-(3-(Methylsulfinyl)-6-(morpholine-4-carbonyl)-1H-indol-1-yl)pyrimidin-5-yl)thiazole-5-carboxamide]
71%	177 to 181 °C			O=C(c1ccc2c(C3CC3)cn(-c3ncc(-c4ccccc4F)cn3)c2c1)N1CCOCC1 [Example 354, (3-Cyclopropyl-1-(5-(2-fluorophenyl)pyrimidin-2-yl)-1H-indol-6-yl)(morpholino) methanone]
93%	194 to 198 °C			C[S+]([O-])c1cn(-c2ncc(-c3ccccc3F)cn2)c2cc(C(=O)N3CCO[C@H](CO)C3)ccc12 (stereo partly drawn) [Example 220, (1-(5-(2-Fluorophenyl)pyrimidin-2-yl)-3-(methylsulfinyl)-1H-indol-6-yl)((S)-2-(hydroxymethyl)morpholino)methanone]
	157 to 160 °C	100%		Cc1ccnc(-c2cnc(-n3cc(S(C)(=O)=O)c4ccc(C(=O)N5CC[C@@H](N)C5)cc43)nc2)c1 [Example 340, (R)-(3-Aminopyrrolidin-1-yl)(1-(5-(4-methylpyridin-2-yl)pyrimidin-2-yl)-3-(methylsulfonyl)-1H-indol-6-yl)methanone]
96%	302 to 305 °C			C[S+]([O-])c1cn(-c2ncc(-c3cc(C(N)=O)cs3)cn2)c2cc(C(=O)N3CCOCC3)ccc12 (stereo not shown) [Example 196, 5-(2-(3-(Methylsulfinyl)-6-(morpholine-4-carbonyl)-1H-indol-1-yl)pyrimidin-5-yl)thiophene-3-carboxamide]
	264 to 268 °C	99%		CC(C)c1ccnc(-c2cnc(-n3cc([S+](C)[O-])c4ccc(C(=O)N5CC[C@@H](N)C5)cc43)nc2)c1 (stereo partly drawn) [Example 338, ((R)-3-Aminopyrrolidin-1-yl)(1-(5-(4-isopropylpyridin-2-yl)pyrimidin-2-yl)-3-(methylsulfinyl)-1H-indol-6-yl)methanone]
67%	273 to 276 °C			C[S+]([O-])c1cn(-c2ncc(-c3nc(C#N)cs3)cn2)c2cc(C(=O)N3CCOCC3)ccc12 (stereo not shown) [Example 203, 2-(2-(3-(Methylsulfinyl)-6-(morpholine-4-carbonyl)-1H-indol-1-yl)pyrimidin-5-yl)thiazole-4-carbonitrile]
96%	232 to 235 °C			Cc1csc(-c2cnc(-n3cc([S+](C)[O-])c4ccc(C(=O)N5CCOCC5)cc43)nc2)c1 (stereo not shown) [Example 197]
	141 to 144 °C	97%		C[S+]([O-])c1cn(-c2ncc(-c3ccccc3F)cn2)c2cc(C(=O)N3CC4CCC3CN4)ccc12 (stereo not shown) [Example 347, 2,5-Diazabicyclo[2.2.2]octan-2-yl(1-(5-(2-fluorophenyl)pyrimidin-2-yl)-3-(methylsulfinyl)-1H-indol-6-yl)methanone]
87%	206 to 210 °C			C[S+]([O-])c1cn(-c2ncc(-c3ccccc3F)cn2)c2cc(C(=O)N3CCO[C@@H](CO)C3)ccc12 (stereo partly drawn) [Example 219, (1-(5-(2-Fluorophenyl)pyrimidin-2-yl)-3-(methylsulfinyl)-1H-indol-6-yl)((R)-2-(hydroxymethyl)morpholino)methanone]
	278 to 281 °C	105%		C[S+]([O-])c1cn(-c2ncc(-c3cc(C4CC4)ccn3)cn2)c2cc(C(=O)N3CC[C@@H](N)C3)ccc12 (stereo partly drawn) [Example 339, ((R)-3-Aminopyrrolidin-1-yl)(1-(5-(4-cyclopropylpyridin-2-yl)pyrimidin-2-yl)-3-(methylsulfinyl)-1H-indol-6-yl)methanone]
94%	88 to 92 °C			CN(CCN)C(=O)c1ccc2c([S+](C)[O-])cn(-c3ncc(-c4ccccc4F)cn3)c2c1 (stereo not shown) [Example 221, N-(2-Aminoethyl)-1-(5-(2-fluorophenyl)pyrimidin-2-yl)-N-methyl-3-(methylsulfinyl)-1H-indole-6-carboxamide]
95%	253 to 256 °C			C[S+]([O-])c1cn(-c2ncc(-c3cc(C#N)cs3)cn2)c2cc(C(=O)N3CCOCC3)ccc12 (stereo not shown) [Example 195, 5-(2-(3-(Methylsulfinyl)-6-(morpholine-4-carbonyl)-1H-indol-1-yl)pyrimidin-5-yl)thiophene-3-carbonitrile]
	160 to 163 °C	102%		CCc1ccnc(-c2cnc(-n3cc([S+](C)[O-])c4ccc(C(=O)N5CC[C@@H](N)C5)cc43)nc2)c1 (stereo partly drawn) [Example 337, ((R)-3-Aminopyrrolidin-1-yl)(1-(5-(4-ethylpyridin-2-yl)pyrimidin-2-yl)-3-(methylsulfinyl)-1H-indol-6-yl)methanone]
85%	257 to 260 °C			Cc1cnc(-c2cnc(-n3cc([S+](C)[O-])c4ccc(C(=O)N5CCOCC5)cc43)nc2)s1 (stereo not shown) [Example 206, (3-(Methylsulfinyl)-1-(5-(5-methylthiazol-2-yl)pyrimidin-2-yl)-1H-indol-6-yl)(morpholino)methanone]
	120 to 123 °C		114%	Cc1ccc(F)c(-c2cnc(-n3cc([S+](C)[O-])c4ccc(C(=O)N5CCOCC5)cc43)nc2)c1 (stereo not shown) [Example 198]
	249 to 253 °C		87%	C[S+]([O-])c1cn(-c2ncc(-c3cccc(O)c3)cn2)c2cc(C(=O)N3CCOCC3)ccc12 (stereo not shown) [Example 149, (1-(5-(3-Hydroxyphenyl)pyrimidin-2-yl)-3-(methylsulfinyl)-1H-indol-6-yl)(morpholino)methanone]
	159 to 163 °C		41%	C[S+]([O-])c1cn(-c2ncc(-c3cc(C#N)ccc3F)cn2)c2cc(C(=O)N3CCNCC3)ccc12 (stereo not shown) [Example 17, 4-Fluoro-3-(2-(3-(methylsulfinyl)-6-(piperazine-1-carbonyl)-1H-indol-1-yl)pyrimidin-5-yl)benzonitrile]
93%	247 to 249 °C			Cc1csc(-c2cnc(-n3cc([S+](C)[O-])c4ccc(C(=O)N5CCOCC5)cc43)nc2)n1 (stereo not shown) [Example 205, (3-(Methylsulfinyl)-1-(5-(4-methylthiazol-2-yl)pyrimidin-2-yl)-1H-indol-6-yl)(morpholino)methanone]
	226 to 230 °C		98%	C[S+]([O-])c1cn(-c2ncc(-c3ccccc3Cl)cn2)c2cc(C(=O)N3CCOCC3)ccc12 (stereo not shown) [Example 3, (1-(5-(2-Chlorophenyl)pyrimidin-2-yl)-3-(methylsulfinyl)-1H-indol-6-yl)(morpholino) methanone]

Compound	inhibition at 1 µM (human PDE4B1 [1])	melting point	inhibition at 10 µM (human PDE4B1 [1])	inhibition at 1 µM (human PDE4B1 [2])
C[S+]([O-])c1cn(-c2ncc(-c3ccccc3F)cn2)c2cc(C(=O)N3C4CCC3CNC4)ccc12 (stereo not shown) [Example 348, 3,8-Diazabicyclo[3.2.1]octan-8-yl(1-(5-(2-fluorophenyl)pyrimidin-2-yl)-3-(methylsulfinyl)-1H-indol-6-yl)methanone]	99%	237 to 240 °C		
